Reference: article PMC2688463 (Journal of medicinal chemistry, 2008)

Legend:
[1] = test system: MDA-MB-231 breast cancer cell line; assay: Cell growth assay; type: cell-based, human
[2] = test system: SK-OV-3 ovarian cancer cell line; assay: Cell growth assay; type: cell-based, human
MDA-MB-231 cell line = assay: Apoptosis assay; type: cell-based, human; details: 100 nM, 48 hours
[3] = target: recombinant human XIAP BIR3 protein (Homo sapiens, UniProt P98170); assay: Cell-free caspase-9 functional assay; type: biochemical; details: at concentrations as high as 100 μM
Chain of recombinant human XIAP BIR3 protein (P98170 241-356): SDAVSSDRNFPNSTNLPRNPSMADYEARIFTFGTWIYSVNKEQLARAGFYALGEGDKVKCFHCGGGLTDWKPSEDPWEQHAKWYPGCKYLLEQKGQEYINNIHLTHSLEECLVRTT

## CC[C@H](N)C(=O)N[C@H]1CCCC[C@H]2CC[C@@H](C(=O)NC(c3ccccc3)c3ccccc3)N2C1=O [Compound 17, (3S,6S,11S)-6-((S)-2-Amino-butyrylamino)-5-oxo-decahydro-pyrrolo[1,2-α]azocine-3-carboxylic acid benzhydryl-amide]
[1]
  cellular activity (cell growth inhibition): weak cellular activity
[2]
  cellular activity (cell growth inhibition): weak cellular activity

## CN[C@@H](C)C(=O)N[C@H]1CCCC[C@H]2CC[C@@H](C(=O)NC(c3ccccc3)c3ccccc3)N2C1=O [Compound 20, (3S,6S,11S)-6-((S)-2-Methylamino-propionylamino)-5-oxo-decahydro-pyrrolo[1,2-α]azocine-3-carboxylic acid benzhydryl-amide]
MDA-MB-231 cell line
  induction of apoptosis: robust apoptosis

## CC[C@H](NC)C(=O)N[C@H]1CCCC[C@H]2CC[C@@H](C(=O)NC(c3ccccc3)c3ccccc3)N2C1=O [Compound 21, (3S,6S,11S)-6-((S)-2-Methylamino-butyrylamino)-5-oxo-decahydro-pyrrolo[1,2-α]azocine-3-carboxylic acid benzhydryl-amide]
MDA-MB-231 cell line
  induction of apoptosis: robust apoptosis

## C[C@H](O)C(=O)N[C@H]1CCCC[C@H]2CC[C@@H](C(=O)NC(c3ccccc3)c3ccccc3)N2C1=O [Compound 24]
[1]
  times less potent than compound 25 in cell growth inhibition: > 30 times
[2]
  times less potent than compound 25 in cell growth inhibition: > 30 times
[3]
  restoration of caspase-9 activity: no significant effect
